# Tests used:
# PAC1 = settings: human PAC1; ref [18],[19]; cited from earlier work
# Excerpt: In vertebrates, activation of PAC1/VPAC receptors occurs via three intracellular transduction mechanisms. These involve either cyclic AMP (cAMP) production, IP turnover via PLC or/and calcium mobilization as a consequence of the activation of a G-protein complex. In mammals, five PAC1 isoforms, which result from the insertion of one or two, 28 (hip or hop1 variant) or ...
# [1] = test system: endogenous receptors in Hek293; assay: Negative control: Hek293 cells transfected with pcDNA3 without insert; type: cell-based; settings: maximum concentration of test peptide (10^-6 M)
# Excerpt: The sbPAC1A and sbPAC1B were successfully expressed in Cos7 and Hek293 cell lines as confirmed by immunofluorescence and Western blot analysis. Cos7 cell extracts subject to Western blot contained a specific immunoreactive fusion protein of approximately 52 kDa in transfected cells, which corresponds to the estimated molecular weight in silico of the fusion proteins, (T7PAC1A is 52.75 kDa and T7PAC1B is 52.32 kDa). […] For this reason only the results obtained with transfected Cos7 cells are presented.
# Ligand binding studies were performed two days after transfections, in three independent experiments. […]
# (§1) The quantification of cAMP produced was determined by radioimmunoassay using the TRK432 kit (GE Healthcare, UK) following the manufacturer's instructions. […] The concentration of cAMP produced (pmol/well) was determined in duplicate for each sample and calculations performed based on a linear regression curve constructed using standard concentrations of labelled (^3H) cAMP. […] Data was analyzed by comparing the potency profile of each sbPAC1 receptor in the presence of different concentrations of test peptides and by comparing the potency profile of both receptors in the presence of identical peptide concentrations. […]
# sbPAC1B = assay: cAMP production in Cos7 cells expressing sbPAC1B (RIA); type: cell-based, sea bream (Sparus auratus); settings: for LOGEC50 for maximal cAMP production: 10^-6 to 10^-11M peptide, cAMP by radioimmunoassay (TRK432), mean ± SEM of three independent experiments in duplicate, log value with negative sign
# Method: (§2) Specific primers for each sbPAC1 gene were designed to amplify the mature receptor sequence (Table 2) and were cloned into pcDNA3 vector (Invitrogen, UK) containing a signal peptide of CD33 and a T7-epitope tag (CD33-T7-pcDNA3, [66]). In order to facilitate cloning, restriction digestion sites for BglII and EcoRI enzymes were incorporated in the forward and reverse primers respectively. Template amplification was carried out using the thermocyle; 95°C for 2 minutes; 35 cycles of (95°C for 1 minute, 68°C for 1 minute and 70°C 2 minutes); 72°C for 10 minutes with a proof-reading Pfu DNA polymerase (Promega, Spain) in a 25 μl reaction volume containing 1 × PCR buffer (Promega, Spain), 1,5 mM MgCl2 (Promega, Spain), 0,2 mM dNTPs (Amersham), […] of each primer and 1,5 U Pfu DNA polymerase (3 U/μl)) and DNase Free water (Sigma-Aldrich, Spain). The amplified PCR products were cloned into pGEMT-easy vector (Promega, Spain), sequenced and subcloned into CD33-T7-pcDNA3 vector in frame with the T7-epitope tag. The recombinant constructs produced (CD33-T7-pcDNA3+sbPAC1A and CD33-T7-pcDNA3+sbPAC1B) were sequenced and used to transfect mammalian Cos7 and Hek293 cells lines. The CD86 (NM_175862) membrane protein of the immunoglobulin superfamily cloned in CD33-T7-pcDNA3 expression vector was used as positive control for cell transfection (de Vet et al., 2001).
# (§3) Mammalian Cos7 and Hek293 cell lines were transfected using the Effectene transfection kit (Qiagen, Germany) and the success of transfection was assessed by western blot and immunofluorescence assays using antisera raised against the T7-epitope tag protein [66]. One day prior to transfection, approximately 60,000 to 70,000 Cos7 and Hek293 cells were seeded and transfections carried out using approximately 0.4 μg of recombinant construct (pcDNA3+sbPAC1A or B) and cells were grown for 2 days at 37°C. The viability of transfected cells was determined by dye exclusion using Trypan blue (0,4% solution, Sigma) and the success of transfection calculated by fluorescent confocal microscopy using DAPI (4',6-Diamidino-2-phenylindole) and FITC (Fluorescein) staining for Cos7 cells and the FACS (Fluorescence Activated Cell Sorting) method for Hek293 cells. The percentage of cell transfection was estimated to be approximately 30% in both cell lines.
# (§4) Ligand binding studies were performed two days after transfections, in three independent experiments. Transfected cells were incubated in duplicate with different concentrations (10^-6 to 10^-11M) of the human VIP, PACAP38 and secretin (SCT) peptides and ovine PACAP27 peptide for 30 minutes (Sigma-Aldrich, Spain). […]
# The quantification of cAMP produced was determined by radioimmunoassay using the TRK432 kit (GE Healthcare, UK) following the manufacturer's instructions. […]
# sbPAC1A = assay: cAMP production in Cos7 cells expressing sbPAC1A (RIA); type: cell-based, sea bream (Sparus auratus); settings: for LOGEC50 for cAMP production: 10^-6 to 10^-11M peptide, cAMP by radioimmunoassay (TRK432), mean ± SEM of three independent experiments in duplicate, log value with negative sign
# Method: as §2, §3
# Ligand binding studies were performed two days after transfections, in three independent experiments. Transfected cells were incubated in duplicate with different concentrations (10^-6 to 10^-11M) of the human VIP, PACAP38 and secretin (SCT) peptides and ovine PACAP27 peptide for 30 minutes (Sigma-Aldrich, Spain). Homologous sea bream peptides are unavailable but their predicted amino acid sequences are 82%, 100%and 92% identical to human VIP, PACAP27 and PACAP38 respectively and important amino acids at N-terminus potential involved in receptor binding are totally conserved (unpublished data). Prior to ligand-binding assays, Cos7 and Hek293 cells were washed 3 times with DMEM medium without fetal calf serum and incubated in a CO2 incubator with 1 mM of IBMX (3-Isobutyl-1-Methylxantine) for 30 minutes. Ligand-binding assays were performed by incubating the cells in fresh medium containing the peptides in the presence of 1 mM IBMX for 30 minutes at 37°C in the CO2 incubator. After incubation, cells were lysed and stored at -80°C until required. Mammalian Cos7 and Hek293 cells transfected with wild type pcDNA3 were used as negative controls which were incubated with the highest tested peptide concentration ([…]). Prior to assays the responsiveness of transfected Cos7 and Hek293 cells was tested by stimulating cAMP production using Forskolin ([…]; Sigma-Aldrich).
# The quantification of cAMP produced was determined by radioimmunoassay using the TRK432 kit (GE Healthcare, UK) following the manufacturer's instructions. Cos7 and Hek293 cells were lysed by sonication, centrifuged and the supernatant heat denatured for 10 minutes at 100°C. […]
# intestine = settings: tilapia; ref [57]; cited from earlier work
# Excerpt: (§5) An intriguing aspect about the sbPAC1 genes is their divergent tissue distribution and this may be the basis of their specific physiological functions and persistence in the genome. Understanding the biological function of receptors is complex as it is not only the availability and concentration of receptors but also of ligands and accessory factors at a given site which will determine receptor preference/activity and ultimately biological function.
# pituitary cells = settings: compared to GHRH and GnRH for PACAP38; ref [46],[51],[52]; cited from earlier work
# Excerpt: as §5
# [2] = test system: gastric and pancreatic secretion; settings: cod; ref [55],[56]; cited from earlier work
# Excerpt: as §5
# [3] = test system: Cos7 cell lines expressing the recombinant vector; assay: Forskolin activation of transfected Cos7 cells (cAMP); type: cell-based; settings: Forskolin 10 mM, 1 mM and 0.1 mM
# Method: as §4, with “Spain). Homologous sea bream peptides are unavailable but their predicted amino acid sequences are 82%, 100%and 92% identical to human VIP, PACAP27 and PACAP38 respectively and important amino acids at N-terminus potential involved in receptor binding are totally conserved (unpublished data).” for “Spain).”
# as §1
# [4] = test system: Hek293 cell lines expressing the recombinant vector; assay: Forskolin activation of transfected Hek293 cells (cAMP); type: cell-based; settings: Forskolin 10 mM, 1 mM and 0.1 mM
# Method: as §4, with “Spain). Homologous sea bream peptides are unavailable but their predicted amino acid sequences are 82%, 100%and 92% identical to human VIP, PACAP27 and PACAP38 respectively and important amino acids at N-terminus potential involved in receptor binding are totally conserved (unpublished data).” for “Spain).”
# as §1
# [5] = transfected Cos7 cells, 30 minutes, 37°C, 1 mM IBMX
compound,measurement,setting,value
Pituitary Adenylate Cyclase-Activating Polypeptide [PACAP],binding preference of PAC1,PAC1,preferentially binds PACAP
same,responsiveness of Hek293 cells transfected with pcDNA3 without insert,[1],responsive
secretin [SCT],increase above the basal concentration of cAMP production,"sbPAC1B; human SCT, Cos7 cells transformed with sbPAC1B, 30 minutes, 37°C, 1 mM IBMX, data not shown",negligible increase
same,increase above the basal concentration of cAMP production,"sbPAC1A; human SCT, Cos7 cells transformed with sbPAC1A, 30 minutes, 37°C, 1 mM IBMX, data not shown",negligible increase
Vasoactive Intestinal Peptide [VIP],LOGEC50 for maximal cAMP production,sbPAC1B; [5],-6.57 ± 0.14 M
same,stimulation of cAMP compared with PACAP27 and PACAP38,"sbPAC1B; two way Anova, Holm-Sidak, transfected Cos7 cells, P < 0.001",significantly lower than PACAP27 and PACAP38 (P < 0.001)
same,potency for sbPAC1A compared to sbPAC1B,"sbPAC1A; LOGEC50 comparison of sbPAC1A vs sbPAC1B, P < 0.05",significantly more potent for sbPAC1A
same,LOGEC50 for cAMP production,sbPAC1A; [5],-7.23 ± 0.20 M
same,stimulation of cAMP production compared with PACAP peptides,"sbPAC1A; two way Anova, Holm-Sidak, transfected Cos7 cells, P < 0.05",significantly lower (P < 0.05) than for PACAP peptides
same,responsiveness of Hek293 cells transfected with pcDNA3 without insert,[1],responsive
same,effect on ion and water absorption by the intestine,intestine,involved in ion and water absorption by the intestine
same,effect on fish GH secretion by pituitary cells,pituitary cells,little or no effect on GH release
same,effect on gastric and pancreatic secretion,[2],stimulates gastric and pancreatic secretion
Pituitary Adenylate Cyclase-Activating Polypeptide [PACAP27],stimulation of sbPAC1A compared to sbPAC1B (LOGEC50 values for maximal cAMP production),"sbPAC1A; sbPAC1A vs sbPAC1B, P > 0.05",equally stimulated
C=C[C@@]1(C)CC(=O)[C@]2(O)[C@@]3(C)[C@@H](O)CCC(C)(C)[C@@H]3[C@H](O)[C@H](OC(C)=O)[C@@]2(C)O1 [Forskolin],cAMP production with Forskolin,[3],maximal cAMP production
same,cAMP production with Forskolin,[4],maximal cAMP production
Pituitary Adenylate Cyclase-Activating Polypeptide [PACAP38],LOGEC50 for maximal cAMP production,sbPAC1B; [5],-8.92 ± 0.24 M
same,LOGEC50 for cAMP production,sbPAC1A; [5],-8.54 ± 0.18 M
same,effect on fish GH secretion by pituitary cells,pituitary cells,more potent stimulatory effect on fish GH secretion by pituitary cells when compared to GHRH and GnRH
